Laboratory results published in ChEMBL document CHEMBL2424569, “Synthesis of halogenated derivatives of thymol and their antimicrobial activities” (2013).
Converted amounts (≈) assume the structure as drawn. The source made the active and inactive calls. No cut-off for these calls is given here.

Columns and labels:
Type in all cases: functional
Candida albicans [1] = assay: Antifungal activity against Candida albicans AI at MIC after 7 to 10 days by disc diffusion assay
Staphylococcus aureus [2] = assay: Antibacterial activity against Staphylococcus aureus by two-fold serial dilution assay
Candida albicans [3] = assay: Antifungal activity against Candida albicans AI by two-fold serial dilution assay
Candida albicans [4] = assay: Antifungal activity against Candida albicans CN by two-fold serial dilution assay
Staphylococcus aureus [5] = assay: Antibacterial activity against Staphylococcus aureus at MIC after 48 hrs by disc diffusion assay
[6] = system: Staphylococcus epidermidis; assay: Antibacterial activity against Staphylococcus epidermidis by two-fold serial dilution assay
Candida albicans [7] = assay: Antifungal activity against Candida albicans CN at MIC after 7 to 10 days by disc diffusion assay
Candida albicans [8] = assay: Antifungal activity against Candida albicans MTCC by two-fold serial dilution assay
[9] = system: Staphylococcus epidermidis; assay: Antibacterial activity against Staphylococcus epidermidis at MIC after 48 hrs by disc diffusion assay
Candida albicans [10] = assay: Antifungal activity against Candida albicans MTCC at MIC after 7 to 10 days by disc diffusion assay
Escherichia coli [11] = assay: Antibacterial activity against Escherichia coli by two-fold serial dilution assay
Streptococcus mutans [12] = assay: Antibacterial activity against Streptococcus mutans at MIC after 48 hrs by disc diffusion assay
Enterococcus faecalis [13] = assay: Antibacterial activity against Enterococcus faecalis by two-fold serial dilution assay
Streptococcus mutans [14] = assay: Antibacterial activity against Streptococcus mutans by two-fold serial dilution assay
Klebsiella aerogenes [15] = assay: Antibacterial activity against Enterobacter aerogenes at MIC after 48 hrs by disc diffusion assay
Escherichia coli [16] = assay: Antibacterial activity against Escherichia coli at MIC after 48 hrs by disc diffusion assay
Klebsiella pneumoniae [17] = assay: Antibacterial activity against Klebsiella pneumoniae at MIC after 48 hrs by disc diffusion assay
Klebsiella pneumoniae [18] = assay: Antibacterial activity against Klebsiella pneumoniae by two-fold serial dilution assay
Klebsiella aerogenes [19] = assay: Antibacterial activity against Enterobacter aerogenes by two-fold serial dilution assay
Enterococcus faecalis [20] = assay: Antibacterial activity against Enterococcus faecalis at MIC after 48 hrs by disc diffusion assay

SMILES | Activity (Candida albicans [1]) | Activity (Candida albicans [3]) | Activity (Candida albicans [4]) | Activity (Candida albicans [7]) | Activity (Candida albicans [8]) | Activity (Candida albicans [10]) | Activity (Escherichia coli [11]) | Activity (Streptococcus mutans [12]) | Activity (Staphylococcus aureus [2]) | Activity (Enterococcus faecalis [13]) | Activity (Streptococcus mutans [14]) | Activity (Klebsiella aerogenes [15]) | Activity (Escherichia coli [16]) | Activity (Staphylococcus aureus [5]) | Activity [6] | Activity (Klebsiella pneumoniae [17]) | Activity (Klebsiella pneumoniae [18]) | Activity [9] | Activity (Klebsiella aerogenes [19]) | Activity (Enterococcus faecalis [20]) | further results
Cc1c(Br)cc(C(C)C)c(O)c1Br | inactive | inactive | inactive | inactive | inactive | inactive |  |  |  |  |  |  |  |  |  |  |  |  |  |  | MIC (Staphylococcus aureus [2]): 250 µg/mL (≈ 812 µM); inhibition zone (IZ) (Staphylococcus aureus [5]): 13 mm; MIC [6]: 1000 µg/mL (≈ 3250 µM); inhibition zone (IZ) [9]: 16 mm
Cc1cc(O)c(C(C)C)cc1Cl [CHLOROTHYMOL] |  |  |  |  |  |  |  |  |  |  |  |  |  |  |  |  |  |  |  |  | inhibition zone (IZ) (Candida albicans [1]): 30 mm; MIC (Staphylococcus aureus [2]): 12.5 µg/mL (≈ 67.7 µM); MIC (Candida albicans [3]): 100 µg/mL (≈ 542 µM); MIC (Candida albicans [4]): 100 µg/mL (≈ 542 µM); inhibition zone (IZ) (Staphylococcus aureus [5]): 5 mm; MIC [6]: 25 µg/mL (≈ 135 µM); inhibition zone (IZ) (Candida albicans [7]): 10 mm; MIC (Candida albicans [8]): 100 µg/mL (≈ 542 µM); inhibition zone (IZ) [9]: 6 mm; inhibition zone (IZ) (Candida albicans [10]): 20 mm
COc1cc(C)ccc1C(C)C | inactive | inactive | inactive | inactive | inactive | inactive | inactive | inactive | inactive | inactive | inactive | inactive | inactive | inactive | inactive | inactive | inactive | inactive | inactive | inactive | 
C[C@@H]1[C@H](O)[C@@H](C)/C=C/C=C/C=C/C=C/C=C/C=C/C=C/[C@H](O[C@@H]2O[C@H](C)[C@@H](O)[C@H](N)[C@@H]2O)C[C@@H]2O[C@](O)(C[C@@H](O)C[C@@H](O)[C@H](O)CC[C@@H](O)C[C@@H](O)CC(=O)O[C@H]1C)C[C@H](O)[C@H]2C(=O)O [AMPHOTERICIN B] |  |  |  |  |  |  |  |  |  |  |  |  |  |  |  |  |  |  |  |  | inhibition zone (IZ) (Candida albicans [1]): 30 mm; MIC (Candida albicans [3]): 100 µg/mL (≈ 108 µM); MIC (Candida albicans [4]): 100 µg/mL (≈ 108 µM); inhibition zone (IZ) (Candida albicans [7]): 10 mm; MIC (Candida albicans [8]): 100 µg/mL (≈ 108 µM); inhibition zone (IZ) (Candida albicans [10]): 20 mm
Cc1ccc(C(C)C)c(O)c1Br | inactive | inactive | inactive | inactive | inactive | inactive |  |  |  |  |  |  |  |  |  |  |  |  |  |  | inhibition zone (IZ) (Streptococcus mutans [12]): 3 mm; MIC (Streptococcus mutans [14]): 125 µg/mL (≈ 546 µM); inhibition zone (IZ) (Klebsiella aerogenes [15]): 2 mm; MIC (Klebsiella aerogenes [19]): 100 µg/mL (≈ 436 µM)
Cc1c(Cl)cc(C(C)C)c(O)c1Br | inactive | inactive | inactive | inactive | inactive | inactive | inactive | inactive | inactive | inactive | inactive | inactive | inactive | inactive | inactive | inactive | inactive | inactive | inactive | inactive | 
COc1c(C(C)C)ccc(C)c1Br | inactive | inactive | inactive | inactive | inactive | inactive | inactive | inactive | inactive | inactive | inactive | inactive | inactive | inactive | inactive | inactive | inactive | inactive | inactive | inactive | 
Cc1c(Cl)cc(C(C)C)c(O)c1Cl | inactive | inactive | inactive | inactive | inactive | inactive | inactive | inactive | inactive | inactive | inactive | inactive | inactive | inactive | inactive | inactive | inactive | inactive | inactive | inactive | 
Cc1ccc(C(C)C)c(O)c1 [THYMOL] |  |  |  |  |  |  |  |  |  |  |  |  |  |  |  |  |  |  |  |  | inhibition zone (IZ) (Candida albicans [1]): 5 mm; MIC (Escherichia coli [11]): 100 µg/mL (≈ 666 µM); inhibition zone (IZ) (Streptococcus mutans [12]): 11 mm; MIC (Staphylococcus aureus [2]): 125 µg/mL (≈ 832 µM); MIC (Enterococcus faecalis [13]): 62.5 µg/mL (≈ 416 µM); MIC (Streptococcus mutans [14]): 62.5 µg/mL (≈ 416 µM); MIC (Candida albicans [3]): 100 µg/mL (≈ 666 µM); inhibition zone (IZ) (Klebsiella aerogenes [15]): 8 mm; MIC (Candida albicans [4]): 100 µg/mL (≈ 666 µM); inhibition zone (IZ) (Escherichia coli [16]): 3 mm; inhibition zone (IZ) (Staphylococcus aureus [5]): 12 mm; MIC [6]: 32.2 µg/mL (≈ 215 µM); inhibition zone (IZ) (Candida albicans [7]): 6 mm; inhibition zone (IZ) (Klebsiella pneumoniae [17]): 6 mm; MIC (Candida albicans [8]): 100 µg/mL (≈ 666 µM); MIC (Klebsiella pneumoniae [18]): 250 µg/mL (≈ 1660 µM); inhibition zone (IZ) [9]: 18 mm; inhibition zone (IZ) (Candida albicans [10]): 8 mm; MIC (Klebsiella aerogenes [19]): 125 µg/mL (≈ 832 µM); inhibition zone (IZ) (Enterococcus faecalis [20]): 10 mm
CN[C@@H]1[C@H](O[C@H]2[C@H](O[C@H]3[C@H](O)[C@@H](O)[C@H](N=C(N)N)[C@@H](O)[C@@H]3N=C(N)N)O[C@@H](C)[C@]2(O)C=O)O[C@@H](CO)[C@H](O)[C@H]1O [STREPTOMYCIN] |  |  |  |  |  |  |  |  |  |  |  |  |  |  |  |  |  |  |  |  | MIC (Escherichia coli [11]): 1.35 µg/mL (≈ 2.32 µM); inhibition zone (IZ) (Streptococcus mutans [12]): 13 mm; MIC (Staphylococcus aureus [2]): 12.5 µg/mL (≈ 21.5 µM); MIC (Enterococcus faecalis [13]): 0.36 µg/mL (≈ 0.619 µM); MIC (Streptococcus mutans [14]): 6.35 µg/mL (≈ 10.9 µM); inhibition zone (IZ) (Klebsiella aerogenes [15]): 10 mm; inhibition zone (IZ) (Escherichia coli [16]): 9 mm; inhibition zone (IZ) (Staphylococcus aureus [5]): 9 mm; MIC [6]: 6.35 µg/mL (≈ 10.9 µM); inhibition zone (IZ) (Klebsiella pneumoniae [17]): 9 mm; MIC (Klebsiella pneumoniae [18]): 2.71 µg/mL (≈ 4.66 µM); inhibition zone (IZ) [9]: 9 mm; MIC (Klebsiella aerogenes [19]): 2.71 µg/mL (≈ 4.66 µM); inhibition zone (IZ) (Enterococcus faecalis [20]): 10 mm
COc1cc(C)c(I)cc1C(C)C | inactive | inactive | inactive | inactive | inactive | inactive | inactive | inactive | inactive | inactive | inactive | inactive | inactive | inactive | inactive | inactive | inactive | inactive | inactive | inactive | 
